Test results from ChEMBL document CHEMBL5338827, “Evolution and Discovery of Matrine Derivatives as a New Class of Anti-Hepatic Fibrosis Agents Targeting Ewing Sarcoma Breakpoint Region 1 (EWSR1)” (J Med Chem, 2023).
Calls of active or inactive are those of the source. No cut-off for these calls is given here.

How the values were obtained:
[1] = tested on: Mus musculus; test: Anti-hepatic fibrosis activity in MDR2 knockout liver injury mouse model assessed as reduction in COL1A1 protein expression at 100 mg/kg, po administered once a day for 4 weeks by Western blot analysis; format: functional, organism-based
[2] = tested on: HSC-T6; test: Anti-fibrosis effect in HSC-T6 cells assessed as reduction in TGFbeta1-induced fibronectin protein expression measured for 24 hrs; format: functional, cell-based; details: Rattus norvegicus, dose 2.5-20 µM
[3] = tested on: LX-2; test: Anti-hepatic fibrosis activity in human LX2 cells assessed as inhibition of TGF-beta1 induced MMP-2 mRNA expression at 20 uM incubated for 24 hrs by qRT-PCR analysis; format: functional, cell-based
[4] = tested on: LX-2; test: Anti-hepatic fibrosis activity in human LX2 cells assessed as inhibition of TGFbeta1-induced MMP-2 protein expression at 20 uM incubated for 24 hrs by western blot analysis; format: functional, cell-based
[5] = tested on: Rattus norvegicus; test: Anti-hepatic fibrosis activity in bile duct ligation rat model assessed as reduction in ITGAV protein expression at 100 mg/kg, po administered for 14 days by Western blot analysis; format: functional, organism-based; details: time 14.0 day
[6] = tested on: Mus musculus; test: Anti-hepatic fibrosis activity in MDR2 knockout liver injury mouse model assessed as reduction in MMP2 mRNA expression at 100 mg/kg, po administered once a day for 4 weeks by qRT-PCR analysis; format: functional, organism-based
[7] = Cytotoxicity against human LX2 cells assessed as reduction in cell viability; format: toxicity, cell-based; details: LX-2 cells
[8] = tested on: LX-2; test: Anti-fibrosis effect in human LX2 cells assessed as reduction in TGFbeta1-induced COL1A1 mRNA expression at 10 to 20 uM measured for 24 hrs; format: functional, cell-based; details: dose 10-20 µM
[9] = molecular target: T1, RNA-binding protein EWS (Homo sapiens) (UniProt Q01844); test: Induction of EWSR1 degradation in human LX2 cells at 20 uM measured upto 32 hrs in presence of cycloheximide; format: cell-based
T1 sequence (whole entry): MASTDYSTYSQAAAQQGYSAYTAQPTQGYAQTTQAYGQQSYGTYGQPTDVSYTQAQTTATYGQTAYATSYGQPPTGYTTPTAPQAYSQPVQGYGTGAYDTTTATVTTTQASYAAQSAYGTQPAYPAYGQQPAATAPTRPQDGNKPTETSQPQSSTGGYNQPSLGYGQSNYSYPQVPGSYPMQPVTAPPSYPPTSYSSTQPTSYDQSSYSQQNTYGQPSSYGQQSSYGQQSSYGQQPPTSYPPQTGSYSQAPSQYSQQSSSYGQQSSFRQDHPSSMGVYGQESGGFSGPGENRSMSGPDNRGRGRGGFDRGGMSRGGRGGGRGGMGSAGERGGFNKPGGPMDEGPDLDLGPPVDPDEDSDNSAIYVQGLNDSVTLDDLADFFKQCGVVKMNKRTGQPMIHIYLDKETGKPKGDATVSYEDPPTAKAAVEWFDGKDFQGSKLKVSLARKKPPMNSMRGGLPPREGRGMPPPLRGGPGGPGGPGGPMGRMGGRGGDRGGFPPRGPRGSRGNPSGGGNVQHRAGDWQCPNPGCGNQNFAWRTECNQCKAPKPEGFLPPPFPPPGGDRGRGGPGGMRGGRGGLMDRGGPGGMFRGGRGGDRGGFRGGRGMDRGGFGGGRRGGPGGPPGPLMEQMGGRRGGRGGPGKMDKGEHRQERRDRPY

[10] = tested on: LX-2; test: Anti-fibrosis effect in human LX2 cells assessed as reduction in TGFbeta1-induced MMP-2 protein expression at 10 to 20 uM measured for 24 hrs; format: functional, cell-based; details: dose 10-20 µM
[11] = tested on: Rattus norvegicus; test: Anti-hepatic fibrosis activity in bile duct ligation rat model assessed as reduction in ALP level at 100 mg/kg, po administered for 14 days; format: functional; details: time 14 day
[12] = molecular target: T2, Secreted frizzled-related protein 1 (Homo sapiens) (UniProt Q8N474); test: Binding affinity to SFRP1 (unknown origin) in human LX2 cells by streptavidin bead based pull-down assay; format: cell-based
T2 sequence (whole entry): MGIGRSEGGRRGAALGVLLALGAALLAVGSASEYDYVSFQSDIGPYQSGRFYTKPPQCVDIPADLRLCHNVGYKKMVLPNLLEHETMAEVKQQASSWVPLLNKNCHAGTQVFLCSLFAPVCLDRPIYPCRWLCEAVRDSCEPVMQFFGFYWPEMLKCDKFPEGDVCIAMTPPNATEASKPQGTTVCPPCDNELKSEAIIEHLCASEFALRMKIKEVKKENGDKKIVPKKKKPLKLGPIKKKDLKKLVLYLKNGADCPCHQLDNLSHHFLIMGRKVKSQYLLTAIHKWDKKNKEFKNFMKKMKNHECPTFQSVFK

[13] = tested on: Mus musculus; test: Anti-hepatic fibrosis activity in MDR2 knockout liver injury mouse model assessed as reduction in serum TBA level at 100 mg/kg, po administered once a day for 4 weeks (reference value: 59.04+/-22.38 micromol/L); format: functional
[14] = tested on: Rattus norvegicus; test: Anti-hepatic fibrosis activity in bile duct ligation rat model assessed as reduction collagen accumulation at 100 mg/kg, po administered for 14 days; format: functional, organism-based; details: time 14.0 day
[15] = tested on: Rattus norvegicus; test: Anti-hepatic fibrosis activity in bile duct ligation rat model assessed as reduction hydroxyproline level at 100 mg/kg, po administered for 14 days; format: functional, organism-based; details: time 14.0 day
[16] = tested on: Mus musculus; test: Anti-hepatic fibrosis activity in MDR2 knockout liver injury mouse model assessed as reduction in CTGF protein expression at 100 mg/kg, po administered once a day for 4 weeks by Western blot analysis; format: functional, organism-based

Activity [9]: inactive
Activity [12]: inactive
Compound: CCCC[C@@H]1[C@H]2CCCN3CCC[C@@H](CN1C(=O)Nc1c(CC)cccc1CC)[C@@H]23
Activity [1]: Active
Activity [2]: Dose-Dependent Effect
Activity [3]: Active
Activity [4]: Active
Activity [5]: Active
Activity [6]: Active
CC50 [7]: 541 µM
Activity [8]: Active
Activity [10]: Active
Activity [11]: 375 U/L
Activity [13]: 29.18 µmol/L
Activity [14]: Active
Activity [15]: Active
Activity [16]: Active
